From US20230085307A1, “PYRIDAZINONE COMPOUND AND HERBICIDE” (NISSAN CHEMICAL CORPORATION, priority 2019, published 2023)

Key:
wild oat = experiment: Test Example 5: herbicidal effect by foliage application, plastic box (Table 20, symbol I); type: in vivo, wild oat (Avena fatua); details: foliage application
Outline: (§1)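 Sow seeds spot-wise in sterilized diluvial soil; cover with ~1.5 cm soil. Grow 14 days in greenhouse, 25° C. to 30° C. Spray foliage with emulsion diluted to predetermined amount. Rate effect after 3 weeks.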

persian speedwell = experiment: Test Example 5: herbicidal effect by foliage application, plastic box (Table 20, symbol R); type: in vivo, Persian speedwell (Veronica persica); details: foliage application
Outline: as §1

southern crabgrass [1] = experiment: Test Example 5: herbicidal effect by foliage application, plastic box (Table 20, symbol F); type: in vivo, southern crabgrass (Digitaria ciliaris); details: foliage application
Outline: as §1

green foxtail [2] = experiment: Test Example 5: herbicidal effect by foliage application, plastic box (Table 20, symbol G); type: in vivo, green foxtail (Setaria viridis); details: foliage application
Outline: as §1

late watergrass = experiment: Test Example 1: herbicidal activity, application before weed generation under submerged conditions (Table 16, symbol A); type: in vivo, late watergrass (Echinochloa oryzicola); details: for Herbicidal effect on A: late watergrass (grade 0-5): 320 g/ha applied herbicide
Outline: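 Emulsion formulation, water-diluted to set dose, was put onto the flooded surface (4 cm depth, alluvial soil) the same day weeds were sown and 2.5-leaf rice transplanted. After 3 weeks at 25-30 °C under glass, each species was rated 0 (≤5% kill) to 5 (≥90% kill).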

Japanese bulrush = experiment: Test Example 2: herbicidal activity, application during weed generation under submerged conditions (Table 17, symbol B); type: in vivo, Japanese bulrush (Schoenoplectus juncoides); details: application during weed generation, submerged conditions
Outline: (§2)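 Mixed weed seedlings in alluvial soil under a 4 cm water layer, greenhouse-grown at 25–30° C. Compound given as a diluted emulsion into the floodwater at the 1–2 leaf stage; response graded after three weeks.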

blackgrass = experiment: Test Example 4: herbicidal effect by soil treatment (Table 19, symbol J); type: in vivo, blackgrass (Alopecurus myosuroides)
Outline: (§3)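 Soil-surface application: an emulsion agent diluted with water to the predetermined dose is sprayed uniformly over seeds lying under roughly 1.5 cm of sterilized diluvial soil. Boxes stay in a greenhouse at 25° C. to 30° C. Three weeks later, each species is graded on previously defined criteria.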

oval-leafed pondweed = experiment: Test Example 2: herbicidal activity, application during weed generation under submerged conditions (Table 17, symbol C); type: in vivo, oval-leafed pondweed (Monochoria vaginalis); details: application during weed generation, submerged conditions
Outline: as §2

windgrass = experiment: Test Example 5: herbicidal effect by foliage application, plastic box (Table 20, symbol L); type: in vivo, windgrass (Apera spica-venti); details: foliage application
Outline: as §1

redroot pigweed = experiment: Test Example 4: herbicidal effect by soil treatment (Table 19, symbol N); type: in vivo, redroot pigweed (Amaranthus retroflexus)
Outline: as §3

chickweed [3] = experiment: Test Example 4: herbicidal effect by soil treatment (Table 19, symbol P); type: in vivo, common chickweed (Stellaria media)
Outline: as §3

green foxtail [4] = experiment: Test Example 4: herbicidal effect by soil treatment (Table 19, symbol G); type: in vivo, green foxtail (Setaria viridis)
Outline: as §3

rice flat sedge = experiment: Test Example 3: herbicidal effect by foliage application, Wagner pot (Table 18, symbol E); type: in vivo, rice flat sedge (Cyperus iria)
Outline: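 Plants were sown in alluvial soil held under 0.1–0.5 cm standing water and grown 14 days in a greenhouse at 25–30 °C. An emulsifiable formulation, water-diluted to the set dose, was then sprayed onto the foliage, and effects were scored three weeks later using previously defined criteria.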

southern crabgrass [5] = experiment: Test Example 4: herbicidal effect by soil treatment (Table 19, symbol F); type: in vivo, southern crabgrass (Digitaria ciliaris)
Outline: as §3

Italian ryegrass = experiment: Test Example 4: herbicidal effect by soil treatment (Table 19, symbol K); type: in vivo, Italian ryegrass (Lolium multiflorum)
Outline: as §3

chickweed [6] = experiment: Test Example 5: herbicidal effect by foliage application, plastic box (Table 20, symbol P); type: in vivo, common chickweed (Stellaria media); details: foliage application
Outline: as §1

[7] = AAH 320 g/ha, three weeks after application
[8] = AAH 320 g/ha, evaluated three weeks after application
[9] = amount of applied herbicide 320 g/ha
[10] = 274 g/ha, three weeks after application
[11] = amount of applied herbicide 274 g/ha

Structure (SMILES): Cc1nn(C)c(=O)c(-c2c(-c3ccc(OCC(F)(F)F)cc3)sc3ccccc23)c1O [1-140]
- I: wild oat, herbicidal effect (wild oat; [7]): 0 (Herbicidal rate of 5% or less (almost no effect))
- R: persian speedwell, herbicidal effect (persian speedwell; [7]): 5 (Herbicidal rate of 90% or more (almost completely withered))
- F: southern crabgrass, herbicidal effect (southern crabgrass [1]; [7]): 4 (Herbicidal rate of 70% or more and less than 90%)
- G: green foxtail, herbicidal effect (green foxtail [2]; [7]): 5 (Herbicidal rate of 90% or more (almost completely withered))
- Herbicidal effect on A: late watergrass (grade 0-5) (late watergrass): 3 (Herbicidal rate of 40% or more and less than 70%)
- herbicidal effect rating, B: Japanese bulrush (Japanese bulrush; AAH 320 g/ha): 3 (Herbicidal rate of 40% or more and less than 70%)
- J: blackgrass, herbicidal effect rating (blackgrass; AAH 320 g/ha): 0 (Herbicidal rate of 5% or less (almost no effect))
- herbicidal effect rating, C: oval-leafed pondweed (oval-leafed pondweed; AAH 320 g/ha): 0 (Herbicidal rate of 5% or less (almost no effect))
- L: windgrass, herbicidal effect (windgrass; [7]): 3 (Herbicidal rate of 40% or more and less than 70%)
- N: redroot pigweed, herbicidal effect rating (redroot pigweed; AAH 320 g/ha): 5 (Herbicidal rate of 90% or more (almost completely withered))
- P: chickweed, herbicidal effect rating (chickweed [3]; AAH 320 g/ha): 4 (Herbicidal rate of 70% or more and less than 90%)
- G: green foxtail, herbicidal effect rating (green foxtail [4]; AAH 320 g/ha): 5 (Herbicidal rate of 90% or more (almost completely withered))
- herbicidal effect on E (rice flat sedge), rating 0-5 (rice flat sedge; 320 g/ha): 5 (Herbicidal rate of 90% or more (almost completely withered))
- F: southern crabgrass, herbicidal effect rating (southern crabgrass [5]; AAH 320 g/ha): 5 (Herbicidal rate of 90% or more (almost completely withered))
- K: Italian ryegrass, herbicidal effect rating (Italian ryegrass; AAH 320 g/ha): 5 (Herbicidal rate of 90% or more (almost completely withered))
- P: chickweed, herbicidal effect (chickweed [6]; [7]): 5 (Herbicidal rate of 90% or more (almost completely withered))

Structure (SMILES): C#CCSCc1ccc(-c2sc3ccc(F)cc3c2-c2c(O)c(C)nn(C)c2=O)cc1 [2-325]
- I: wild oat, herbicidal effect (criteria 0-5) (wild oat; [8]): 4 (Herbicidal rate of 70% or more and less than 90%)
- R: persian speedwell, herbicidal effect (criteria 0-5) (persian speedwell; [8]): 5 (Herbicidal rate of 90% or more (almost completely withered))
- F: southern crabgrass, herbicidal effect (criteria 0-5) (southern crabgrass [1]; [8]): 5 (Herbicidal rate of 90% or more (almost completely withered))
- G: green foxtail, herbicidal effect (criteria 0-5) (green foxtail [2]; [8]): 5 (Herbicidal rate of 90% or more (almost completely withered))
- Herbicidal effect on A: late watergrass (grade 0-5) (late watergrass): 3 (Herbicidal rate of 40% or more and less than 70%)
- herbicidal effect rating, B: Japanese bulrush (Japanese bulrush; AAH 320 g/ha): 2 (Herbicidal rate of 20% or more and less than 40%)
- herbicidal effect on J: blackgrass (blackgrass; [9]): 0 (Herbicidal rate of 5% or less (almost no effect))
- herbicidal effect rating, C: oval-leafed pondweed (oval-leafed pondweed; AAH 320 g/ha): 0 (Herbicidal rate of 5% or less (almost no effect))
- L: windgrass, herbicidal effect (criteria 0-5) (windgrass; [8]): 5 (Herbicidal rate of 90% or more (almost completely withered))
- herbicidal effect on N: redroot pigweed (redroot pigweed; [9]): 4 (Herbicidal rate of 70% or more and less than 90%)
- herbicidal effect on P: chickweed (chickweed [3]; [9]): 0 (Herbicidal rate of 5% or less (almost no effect))
- herbicidal effect on G: green foxtail (green foxtail [4]; [9]): 2 (Herbicidal rate of 20% or more and less than 40%)
- herbicidal effect on E: rice flat sedge (rice flat sedge; [9]): 5 (Herbicidal rate of 90% or more (almost completely withered))
- herbicidal effect on F: southern crabgrass (southern crabgrass [5]; [9]): 0 (Herbicidal rate of 5% or less (almost no effect))
- herbicidal effect on K: Italian ryegrass (Italian ryegrass; [9]): 4 (Herbicidal rate of 70% or more and less than 90%)
- P: chickweed, herbicidal effect (criteria 0-5) (chickweed [6]; [8]): 5 (Herbicidal rate of 90% or more (almost completely withered))

Structure (SMILES): COc1ccccc1-c1sc2cc(C)ccc2c1-c1c(O)c(C)nn(C)c1=O [3-049]
- I: wild oat, herbicidal effect grade (wild oat; [10]): 5 (Herbicidal rate of 90% or more (almost completely withered))
- R: persian speedwell, herbicidal effect grade (persian speedwell; [10]): 5 (Herbicidal rate of 90% or more (almost completely withered))
- F: southern crabgrass, herbicidal effect grade (southern crabgrass [1]; [10]): 5 (Herbicidal rate of 90% or more (almost completely withered))
- G: green foxtail, herbicidal effect grade (green foxtail [2]; [10]): 5 (Herbicidal rate of 90% or more (almost completely withered))
- Herbicidal effect, A: late watergrass (late watergrass; [11]): 5 (Herbicidal rate of 90% or more (almost completely withered))
- herbicidal effect rating, B: Japanese bulrush (Japanese bulrush; AAH 274 g/ha): 3 (Herbicidal rate of 40% or more and less than 70%)
- J: blackgrass, herbicidal effect grade (blackgrass; [11]): 3 (Herbicidal rate of 40% or more and less than 70%)
- herbicidal effect rating, C: oval-leafed pondweed (oval-leafed pondweed; AAH 274 g/ha): 2 (Herbicidal rate of 20% or more and less than 40%)
- L: windgrass, herbicidal effect grade (windgrass; [10]): 5 (Herbicidal rate of 90% or more (almost completely withered))
- N: redroot pigweed, herbicidal effect grade (redroot pigweed; [11]): 4 (Herbicidal rate of 70% or more and less than 90%)
- P: chickweed, herbicidal effect grade (chickweed [3]; [11]): 4 (Herbicidal rate of 70% or more and less than 90%)
- G: green foxtail, herbicidal effect grade (green foxtail [4]; [11]): 3 (Herbicidal rate of 40% or more and less than 70%)
- herbicidal effect on rice flat sedge (E) (rice flat sedge; 274 g/ha): 3 (Herbicidal rate of 40% or more and less than 70%)
- F: southern crabgrass, herbicidal effect grade (southern crabgrass [5]; [11]): 3 (Herbicidal rate of 40% or more and less than 70%)
- K: Italian ryegrass, herbicidal effect grade (Italian ryegrass; [11]): 5 (Herbicidal rate of 90% or more (almost completely withered))
- P: chickweed, herbicidal effect grade (chickweed [6]; [10]): 5 (Herbicidal rate of 90% or more (almost completely withered))
